How the values were obtained:
Conditions in all cases: 48 h
NOMO1 [1] = assay: cell viability relative to DMSO control; higher = less cytotoxic
Procedure, shortened: (§1)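 NOMO1, SEM and P12-Ichikawa leukemia cells spent at least four passages adapting to each medium before use. They were seeded at 500 cells/well (NOMO1, SEM) or 1000 cells/well (P12-Ichikawa) in 5 μl in 1536-well plates and pin-dosed with library compounds in DMSO at 11 threefold steps from 47 μM down to 0.79 nM. After 48 h at 37°C, CellTiter-Glo One luminescence was read. Viability is reported as a percentage of the DMSO wells on each plate, with cell-free wells as background.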

P12-Ichikawa [2] = assay: as above
Procedure, shortened: as §1

SEM cells [3] = assay: as above
Procedure, shortened: as §1

SEM cells [4] = assay: AUC of viability dose-response curve (% viability x log10 dose units); higher = less sensitive
Procedure, shortened: (§2)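 Over 48 h at 37°C, leukemia cells in 1536-well plates (500 or 1000 cells/well), adapted to each medium, received library compounds in DMSO at 11 threefold doses from 47 μM to 0.79 nM. CellTiter-Glo One luminescence, normalised per plate to DMSO and cell-free wells, was fitted by a four-parameter log-logistic function of log10 dose. The area under the curve was then integrated by trapezoidal rule, after scaling curves above full viability and removing those that failed quality control.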

NOMO1 [5] = assay: as above
Procedure, shortened: as §2

P12-Ichikawa [6] = assay: as above
Procedure, shortened: as §2

COc1cc([C@@H]2c3cc4c(cc3[C@@H](O[C@@H]3O[C@@H]5CO[C@@H](c6cccs6)O[C@H]5[C@H](O)[C@H]3O)[C@H]3COC(=O)[C@H]23)OCO4)cc(OC)c1O
cell viability [%]
Conditions	NOMO1 [1]	P12-Ichikawa [2]	SEM cells [3]
HPLM + 10% dialyzed FBS, 0.000781 µM	92.7	89.9	94.9
HPLM + 10% dialyzed FBS, 0.00234 µM	97.4	91.6	85
HPLM + 10% dialyzed FBS, 0.00702 µM	115	92.9	89.8
HPLM + 10% dialyzed FBS, 0.0211 µM	111	93	95.1
HPLM + 10% dialyzed FBS, 0.0632 µM	103	90.1	83.1
HPLM + 10% dialyzed FBS, 0.19 µM	89.6	88.2	85
HPLM + 10% dialyzed FBS, 0.569 µM	97.7	83	90.8
HPLM + 10% dialyzed FBS, 1.71 µM	34.3	9.83	16.4
HPLM + 10% dialyzed FBS, 5.12 µM	116	71.4	77.9
HPLM + 10% dialyzed FBS, 15.4 µM	31.1	6.48	15.3
HPLM + 10% dialyzed FBS, 46.1 µM	13.8	6.62	4.57
RPMI 5 mM glucose + 10% FBS, 0.000781 µM	85.3	77.3	96.7
RPMI 5 mM glucose + 10% FBS, 0.00234 µM	85.6	87.9	120
RPMI 5 mM glucose + 10% FBS, 0.00702 µM	89.7	89.2	110
RPMI 5 mM glucose + 10% FBS, 0.0211 µM	97.2	95.8	103
RPMI 5 mM glucose + 10% FBS, 0.0632 µM	81.7	83.3	101
RPMI 5 mM glucose + 10% FBS, 0.19 µM	99.3	80.1	84.7
RPMI 5 mM glucose + 10% FBS, 0.569 µM	91.2	68	78.7
RPMI 5 mM glucose + 10% FBS, 1.71 µM	22.9	6.52	14.4
RPMI 5 mM glucose + 10% FBS, 5.12 µM	101	55.9	80.1
RPMI 5 mM glucose + 10% FBS, 15.4 µM	22.4	5.89	12.6
RPMI 5 mM glucose + 10% FBS, 46.1 µM	12.7	4.88	5.23
RPMI 5 mM glucose + 10% dialyzed FBS, 0.000781 µM	89.5	84.4	86.7
RPMI 5 mM glucose + 10% dialyzed FBS, 0.00234 µM	82.9	91.5	88.9
RPMI 5 mM glucose + 10% dialyzed FBS, 0.00702 µM	91	88.5	79
RPMI 5 mM glucose + 10% dialyzed FBS, 0.0211 µM	89.6	82.3	85.1
RPMI 5 mM glucose + 10% dialyzed FBS, 0.0632 µM	93.2	82.7	79.6
RPMI 5 mM glucose + 10% dialyzed FBS, 0.19 µM	90.6	74.6	68.6
RPMI 5 mM glucose + 10% dialyzed FBS, 0.569 µM	101	73.7	66.8
RPMI 5 mM glucose + 10% dialyzed FBS, 1.71 µM	32.4	8.53	9.66
RPMI 5 mM glucose + 10% dialyzed FBS, 5.12 µM	99.3	59	63.4
RPMI 5 mM glucose + 10% dialyzed FBS, 15.4 µM	25.2	6.51	11
RPMI 5 mM glucose + 10% dialyzed FBS, 46.1 µM	16.7	4.64	3.6

SEM cells [4]
Conditions	AUC of viability dose-response curve
HPLM + 10% dialyzed FBS	329
RPMI 5 mM glucose + 10% FBS	319
RPMI 5 mM glucose + 10% dialyzed FBS	284

O=C1CC[C@@]2(O)[C@H]3Cc4ccc(O)c5c4[C@@]2(CCN3CC2CC2)[C@H]1O5
AUC of viability dose-response curve
Conditions	NOMO1 [5]	P12-Ichikawa [6]	SEM cells [4]
HPLM + 10% dialyzed FBS	419	459	469
RPMI 5 mM glucose + 10% FBS	411	474	451
RPMI 5 mM glucose + 10% dialyzed FBS	434	469	463

CC1=C(CC/C(C)=C/CCC2=CCC(C3=CC(=O)OC3O)OC2O)C(C)(C)CCC1 (configuration not stated)
cell viability [%], SEM cells [3]
Conditions	HPLM + 10% dialyzed FBS	RPMI 5 mM glucose + 10% dialyzed FBS
0.000781 µM	115	121
0.00234 µM	129	124
0.00702 µM	114	119
0.0211 µM	129	112
0.0632 µM	46.6	27.5
0.19 µM	125	132
0.569 µM	138	148
1.71 µM	127	115
5.12 µM	71.4	54
15.4 µM	107	140
46.1 µM	106	129

AUC of viability dose-response curve
Conditions	HPLM + 10% dialyzed FBS	RPMI 5 mM glucose + 10% FBS	RPMI 5 mM glucose + 10% dialyzed FBS
NOMO1 [5]	434	469	466
P12-Ichikawa [6]	457	434	443

CCN1C[C@]2(OC(=O)c3ccccc3NC(C)=O)CC[C@H](OC)[C@@]34[C@@H]2C[C@@H]([C@@H]13)[C@@]1(O)C[C@H](OC)[C@H]2C[C@@H]4[C@]1(O)[C@H]2OC
cell viability [%]
Conditions	NOMO1 [1]	P12-Ichikawa [2]	SEM cells [3]
HPLM + 10% dialyzed FBS, 0.000781 µM	106	91.8	85
HPLM + 10% dialyzed FBS, 0.00234 µM	101	109	100
HPLM + 10% dialyzed FBS, 0.00702 µM	118	110	99
HPLM + 10% dialyzed FBS, 0.0211 µM	101	113	105
HPLM + 10% dialyzed FBS, 0.0632 µM	108	114	99.6
HPLM + 10% dialyzed FBS, 0.19 µM	88.3	109	104
HPLM + 10% dialyzed FBS, 0.569 µM	118	106	98.2
HPLM + 10% dialyzed FBS, 1.71 µM	103	111	106
HPLM + 10% dialyzed FBS, 5.12 µM	112	103	92.5
HPLM + 10% dialyzed FBS, 15.4 µM	93.2	106	85.2
HPLM + 10% dialyzed FBS, 46.1 µM	114	108	88.6
RPMI 5 mM glucose + 10% FBS, 0.000781 µM	96.3	105	79.5
RPMI 5 mM glucose + 10% FBS, 0.00234 µM	99.4	109	96.6
RPMI 5 mM glucose + 10% FBS, 0.00702 µM	101	116	101
RPMI 5 mM glucose + 10% FBS, 0.0211 µM	106	104	102
RPMI 5 mM glucose + 10% FBS, 0.0632 µM	103	113	106
RPMI 5 mM glucose + 10% FBS, 0.19 µM	91.6	111	99.8
RPMI 5 mM glucose + 10% FBS, 0.569 µM	118	119	103
RPMI 5 mM glucose + 10% FBS, 1.71 µM	107	108	90.9
RPMI 5 mM glucose + 10% FBS, 5.12 µM	95.1	99.1	87.9
RPMI 5 mM glucose + 10% FBS, 15.4 µM	101	105	65.6
RPMI 5 mM glucose + 10% FBS, 46.1 µM	107	114	71
RPMI 5 mM glucose + 10% dialyzed FBS, 0.000781 µM	98	103	88.2
RPMI 5 mM glucose + 10% dialyzed FBS, 0.00234 µM	104	111	94.6
RPMI 5 mM glucose + 10% dialyzed FBS, 0.00702 µM	120	115	97.5
RPMI 5 mM glucose + 10% dialyzed FBS, 0.0211 µM	99.1	110	101
RPMI 5 mM glucose + 10% dialyzed FBS, 0.0632 µM	105	117	81.9
RPMI 5 mM glucose + 10% dialyzed FBS, 0.19 µM	105	106	88.4
RPMI 5 mM glucose + 10% dialyzed FBS, 0.569 µM	109	115	99.4
RPMI 5 mM glucose + 10% dialyzed FBS, 1.71 µM	107	110	93
RPMI 5 mM glucose + 10% dialyzed FBS, 5.12 µM	111	104	80.6
RPMI 5 mM glucose + 10% dialyzed FBS, 15.4 µM	106	107	78.4
RPMI 5 mM glucose + 10% dialyzed FBS, 46.1 µM	95.9	102	86.5

AUC of viability dose-response curve
Conditions	NOMO1 [5]	P12-Ichikawa [6]	SEM cells [4]
HPLM + 10% dialyzed FBS	477	473	461
RPMI 5 mM glucose + 10% FBS	465	475	439
RPMI 5 mM glucose + 10% dialyzed FBS	477	469	430

Source: the supplement of paper PMC11451515
